Reference: ChEMBL document CHEMBL1147778, “Development and evaluation of a pharmacophore model for inhibitors of aldosterone synthase (CYP11B2)” (Bioorg Med Chem Lett, 2006)

Key:
Homo sapiens = organism: Homo sapiens; experiment: Selectivity for human CYP11B1 over CYP11B2
[1] = biological target: T1, Cytochrome P450 11B2, mitochondrial (Homo sapiens, UniProt P19099); experiment: Inhibition of aldosterone synthase (CYP11B2) expressed in V79 hamster fibroblasts
T1 sequence (P19099 whole entry): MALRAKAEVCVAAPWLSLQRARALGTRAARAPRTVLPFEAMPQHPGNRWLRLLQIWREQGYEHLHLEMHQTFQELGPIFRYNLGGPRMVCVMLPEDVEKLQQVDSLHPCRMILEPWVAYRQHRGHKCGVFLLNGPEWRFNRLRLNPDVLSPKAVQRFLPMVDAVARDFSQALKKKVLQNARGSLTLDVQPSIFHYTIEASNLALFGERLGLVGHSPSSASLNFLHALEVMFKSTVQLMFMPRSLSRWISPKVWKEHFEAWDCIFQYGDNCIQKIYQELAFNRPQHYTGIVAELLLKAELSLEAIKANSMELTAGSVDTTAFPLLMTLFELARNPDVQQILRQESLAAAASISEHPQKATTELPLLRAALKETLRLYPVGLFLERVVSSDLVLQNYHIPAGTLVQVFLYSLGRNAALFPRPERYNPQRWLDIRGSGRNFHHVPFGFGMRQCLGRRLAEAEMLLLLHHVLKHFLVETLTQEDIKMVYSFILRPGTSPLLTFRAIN

[2] = biological target: T2, Cytochrome P450 11B1, mitochondrial (Homo sapiens, UniProt P15538); experiment: Inhibition of human CYP11B1 expressed in V79 hamster fibroblasts
T2 sequence (P15538 whole entry): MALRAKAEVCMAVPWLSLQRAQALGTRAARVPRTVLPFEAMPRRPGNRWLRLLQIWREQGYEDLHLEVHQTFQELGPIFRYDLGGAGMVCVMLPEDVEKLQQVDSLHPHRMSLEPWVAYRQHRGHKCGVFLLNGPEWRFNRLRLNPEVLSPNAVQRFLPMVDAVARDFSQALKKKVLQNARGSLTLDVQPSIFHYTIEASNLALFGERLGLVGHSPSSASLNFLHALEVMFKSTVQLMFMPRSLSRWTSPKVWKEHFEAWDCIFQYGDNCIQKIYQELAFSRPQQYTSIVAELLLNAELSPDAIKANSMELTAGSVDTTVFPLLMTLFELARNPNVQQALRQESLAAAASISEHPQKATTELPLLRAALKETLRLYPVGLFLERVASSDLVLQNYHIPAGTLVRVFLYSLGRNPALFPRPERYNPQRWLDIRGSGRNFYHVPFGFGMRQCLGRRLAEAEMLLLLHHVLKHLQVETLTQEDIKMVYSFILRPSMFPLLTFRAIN

Row | Compound | Ratio IC50 (Homo sapiens) | IC50 [1] [nM] | IC50 [2] [nM]
1 | c1cncc(-c2ccc3cccc4c3c2CC4)c1 | 245 |  | 
2 | c1cncc(-c2ccc3c4c(cccc24)CC3)c1 | 207 | 14 | 2900
